# Read-outs that look alike come from different tables or passages of the source.
# Experiments:
# Assay in all cases: microbe, parasite or virus in culture
# Details in all cases: Hepatitis C virus
# [1] = tested on: stable HCV 1a RLuc replicon cells (genotype 1a H77 replicon); type: cell-based
# [2] = tested on: stable HCV 2a JFH-1 Rluc replicon cells (L31 present in NS5A); type: cell-based
# [3] = tested on: NS5A chimeric genotype 1b Con1 replicon with genotype 3a S52 strain NS5A gene; type: cell-based, HCV
# In short: (§1)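 Genotype 3a (S52) and 4a (ED43) NS5A chimeras use 1b Con1 Pi-RLuc replicons, transfected transiently; 2b MD2b-1 NS5A chimera (M31) uses 2a JFH-1 RLuc-Neo replicon, transient or stable.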
# [4] = tested on: NS5A chimeric genotype 2a JFH-1 replicon with genotype 2a J6 strain NS5A gene (M31 present); type: cell-based, HCV
# [5] = tested on: NS5A chimeric genotype 2a JFH-1 replicon with genotype 2b MD2b-1 strain NS5A gene (M31 present); type: cell-based, HCV
# In short: as §1
# [6] = tested on: NS5A chimeric genotype 1b Con1 replicon with genotype 4a ED43 strain NS5A gene; type: cell-based, HCV
# [7] = tested on: 1a Pi-Rluc replicon with Q30R in genotype 1a NS5A; type: cell-based, HCV
# In short: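 Q30R introduced by site-directed mutagenesis into genotype 1a Pi-RLuc replicon; RNA transiently transfected into Huh-7-derived cured-51 cells.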
Structure (SMILES),EC50 ([1]; read-out: 1a) [nM],EC50 ([1]; read-out: 1a (nM)) [nM],EC50 ([2]; read-out: 2a JFH) [nM],EC50 ([2]; read-out: 2a JFH (nM)) [nM],EC50 ([3]; read-out: 3a) [nM],EC50 ([3]; read-out: 3a (nM)) [nM],EC50 ([4]; read-out: 2a J6) [nM],EC50 ([4]; read-out: 2a J6 (s) (nM)) [nM],EC50 ([4]; read-out: 2a Jb (t) (nM)) [nM],EC50 ([5]; read-out: 2b) [nM],EC50 ([5]; read-out: 2b (s) (nM)) [nM],EC50 ([5]; read-out: 2b (t) (nM)) [nM],EC50 ([6]; read-out: 4a) [nM],EC50 ([6]; read-out: 4a (s) (nM)) [nM],EC50 ([6]; read-out: 4a (t) (nM)) [nM],EC50 ([7]; read-out: 1a Q30R) [nM],EC50 ([7]; read-out: 1a Q30R (nM)) [nM]
"COC(=O)N[C@H](C(=O)N1C[C@@H](C)C[C@H]1c1ncc(-c2ccc3c(c2)COc2cc4c(ccc5nc([C@@H]6C[C@H](C)CN6C(=O)[C@H](NC(=O)OC)c6ccccc6)[nH]c54)cc2-3)[nH]1)C(C)C [Example NF, Methyl {(2S)-1-[(2S,4S)-2-(5-{2-[(2S,4S)-1-{(2R)-2-[(methoxycarbonyl)amino]-2-phenylacetyl}-4-methylpyrrolidin-2-yl]-1,11-dihydroisochromeno[4′,3′:6,7]naphtho[1,2-d]imidazol-9-yl}-1H-imidazol-2-yl)-4-methylpyrrolidin-1-yl]-3-methyl-1-oxobutan-2-yl}carbamate]",< 1,0.011,< 1,0.006,< 1,0.017,< 1,0.218,0.031,< 1,0.064,0.018,< 1,0.012,0.009,< 1,0.017
"COC(=O)N[C@H](C(=O)N1[C@@H](C)CC[C@H]1c1ncc(-c2ccc3c(c2)COc2cc4c(ccc5nc([C@@H]6CC[C@H](C)N6C(=O)[C@@H](NC(=O)OC)C(C)C)[nH]c54)cc2-3)[nH]1)C(C)C [Example NG, Methyl {(2S)-1-[(2S,5S)-2-(5-{2-[(2S,5S)-1-{(2S)-2-[(methoxycarbonyl)amino]-3-methylbutanoyl}-5-methylpyrrolidin-2-yl]-1,11-dihydroisochromeno[4′,3′:6,7]naphtho[1,2-d]imidazol-9-yl}-1H-imidazol-2-yl)-5-methylpyrrolidin-1-yl]-3-methyl-1-oxobutan-2-yl}carbamate]",< 1,0.006,< 1,0.01,< 1,0.02,< 1,1.67,0.37,< 1,0.135,0.063,< 1,–,0.008,< 1,0.243
"CC[C@H](C)[C@H](NC(=O)OC)C(=O)N1C[C@@H](COC)C[C@H]1c1nc2ccc3cc4c(cc3c2[nH]1)OCc1cc(-c2cnc([C@@H]3CC[C@H](C)N3C(=O)[C@@H](NC(=O)OC)[C@@H](C)CC)[nH]2)ccc1-4 [Example NJ, Methyl {(2S,3S)-1-[(2S,5S)-2-(5-{2-[(2S,4S)-1-{(2S,3S)-2-[(methoxycarbonyl)amino]-3-methylpentanoyl}-4-(methoxymethyl)pyrrolidin-2-yl]-1,11-dihydroisochromeno[4′,3′:6,7]naphtho[1,2-d]imidazol-9-yl}-1H-imidazol-2-yl)-5-methylpyrrolidin-1-yl]-3-methyl-1-oxopentan-2-yl}carbamate]",< 1,0.007,< 1,0.007,< 1,0.019,< 1,0.939,0.099,< 1,0.416,0.094,< 1,0.017,–,< 1,0.025
"COC[C@H]1C[C@@H](c2ncc(-c3ccc4c(c3)COc3cc5c(ccc6nc([C@@H]7C[C@H](COC)CN7C(=O)[C@@H](NC(=O)OC)C(C)C)[nH]c65)cc3-4)[nH]2)N(C(=O)[C@@H](NC(=O)OC)C(C)C)C1 [Example OI, Methyl {(2S)-1-[(2S,4S)-2-(5-{2-[(2S,4S)-1-{(2S)-2-[(methoxycarbonyl)amino]-3-methylbutanoyl}-4-(methoxymethyl)pyrrolidin-2-yl]-1,11-dihydroisochromeno[4′,3′:6,7]naphtho[1,2-d]imidazol-9-yl}-1H-imidazol-2-yl)-4-(methoxymethyl)pyrrolidin-1-yl]-3-methyl-1-oxobutan-2-yl}carbamate]",< 1,0.024,< 1,0.01,< 1,0.206,< 1,0.326,0.061,< 1,0.629,0.178,< 1,0.007,0.036,< 1,0.086
"COC[C@H]1C[C@@H](c2nc3ccc4cc5c(cc4c3[nH]2)OCc2cc(-c3cnc([C@@H]4CCCN4C(=O)[C@@H](NC(=O)OC)C(C)C)[nH]3)ccc2-5)N(C(=O)[C@H](N)c2ccccc2)C1 [Example OO, Methyl {(2S)-1-[(2S)-2-(5-{2-[(2S,4S)-1-[(2R)-2-amino-2-phenylacetyl]-4-(methoxymethyl)pyrrolidin-2-yl]-1,11-dihydroisochromeno[4′,3′:6,7]naphtho[1,2-d]imidazol-9-yl}-1H-imidazol-2-yl)pyrrolidin-1-yl]-3-methyl-1-oxobutan-2-yl}carbamate]",< 1,0.072,< 1,0.015,< 1,0.028,< 1,0.259,0.028,< 1,0.076,0.02,< 1,0.018,0.086,< 1,0.139
"CCO[C@H]1C[C@@H](c2nc3ccc4cc5c(cc4c3[nH]2)OCc2cc(-c3cnc([C@@H]4CCCN4C(=O)[C@@H](NC(=O)OC)C(C)C)[nH]3)ccc2-5)N(C(=O)[C@@H](NC(=O)OC)C(C)C)C1 [Example OQ, Methyl {(2S)-1-[(2S)-2-(5-{2-[(2S,4S)-4-ethoxy-1-{(2S)-2-[(methoxycarbonyl)amino]-3-methylbutanoyl}pyrrolidin-2-yl]-1,11-dihydroisochromeno[4′,3′:6,7]naphtho[1,2-d]imidazol-9-yl}-1H-imidazol-2-yl)pyrrolidin-1-yl]-3-methyl-1-oxobutan-2-yl}carbamate]",< 1,0.015,< 1,0.007,< 1,0.048,< 1,1.49,0.378,< 1,0.982,0.265,< 1,0.016,0.02,< 1,0.102
"CCO[C@H]1C[C@@H](c2nc3ccc4cc5c(cc4c3[nH]2)OCc2cc(-c3cnc([C@@H]4CCCN4C(=O)[C@H](NC(=O)OC)c4ccccc4)[nH]3)ccc2-5)N(C(=O)[C@@H](NC(=O)OC)C(C)C)C1 [Example OR, Methyl {(1R)-2-[(2S)-2-(5-{2-[(2S,4S)-4-ethoxy-1-{(2S)-2-[(methoxycarbonyl)amino]-3-methylbutanoyl}pyrrolidin-2-yl]-1,11-dihydroisochromeno[4′,3′:6,7]naphtho[1,2-d]imidazol-9-yl}-1H-imidazol-2-yl)pyrrolidin-1-yl]-2-oxo-1-phenylethyl}carbamate]",< 1,0.03,< 1,0.011,< 1,0.031,< 1,0.16,0.068,< 1,0.109,0.037,< 1,0.006,0.036,< 1,0.059
"COC(=O)N[C@H](C(=O)N1C[C@@H](C)C[C@H]1c1nc2ccc3cc4c(cc3c2[nH]1)OCc1cc(-c2cnc([C@@H]3C[C@H](C)CN3C(=O)[C@H](NC(=O)OC)c3ccccc3)[nH]2)ccc1-4)C(C)C [Example PG, methyl {(1R)-2-[(2S,4S)-2-(5-{2-[(2S,4S)-1-{(2S)-2-[(methoxycarbonyl)amino]-3-methylbutanoyl}-4-methylpyrrolidin-2-yl]-1,11-dihydroisochromeno[4′,3′:6,7]naphtho[1,2-d]imidazol-9-yl}-1H-imidazol-2-yl)-4-methylpyrrolidin-1-yl]-2-oxo-1-phenylethyl}carbamate]",< 1,0.033,< 1,0.018,< 1,0.05,< 1,0.335,0.045,< 1,0.119,0.027,< 1,0.008,0.063,< 1,0.043

# Reference: US8575135B2 (Gilead Sciences, Inc., priority 2011, dated 2013)
